Results taken from patent US20220378706A1, “PHARMACEUTICAL COMPOSITION COMPRISING PDE9 INHIBITOR” (Eisai R&D Management Co., Ltd., priority 2017, published 2022).
Where two headings read alike, the source gives them in different places.

Test: Single dose clinical study: plasma Compound A pharmacokinetics
Format: in vivo, human
Conditions: human, plasma, po, plasma
Experimental: This was a single center, single dose, randomized, double blind, placebo controlled study in healthy subjects. It consisted of 4 parts: Parts A, B, C, and D. Each of the four study parts had 2 phases: Prerandomization Phase and Randomization Phase. The Prerandomization Phase lasted up to 30 days and consisted of a Screening Period and a Baseline Period, during which each subject's study eligibility was determined and baseline assessments were performed.
In Part A, there were 8 sequential cohorts of healthy adult subjects (18-50 years of age). Subjects were randomly assigned to Compound A or placebo in a ratio of 6:2, respectively. Subjects in the Compound A cohorts were treated with single ascending doses of 10, 25, 50, 100, 200, 400, 800, or 1200 mg.
In Part B, there were 4 cohorts of healthy adult subjects (18-50 years of age). There were 8 subjects in Cohort 1, with 6 subjects randomly assigned to receive single doses of Compound A (400 mg) and 2 subjects randomly assigned to receive placebo. There were 7 subjects in Cohort 2 and Cohort 3, each with 6 subjects randomly assigned to receive single doses of Compound A (100 and 200 mg, respectively) and 1 subject randomly assigned to receive placebo. The dose of 100 mg selected in Cohort 2 was based on preliminary analysis of Cohort 1 data; this dose was predicted from PK/PD modeling to achieve a sustained CSF cGMP increase from baseline of approximately 200% when administered to steady state, and thereby provided a potentially therapeutic dose for further evaluation in future studies. There were 7 subjects in Cohort 4, with 6 subjects randomly assigned to receive a single dose of Compound A (50 mg [n=3] or 75 mg [n=3]) and 1 subject randomly assigned to receive placebo. The doses for Cohorts 3 and 4 were selected based on PK/PD modeling of the data in Cohorts 1 and 2.
Subjects in Cohort 2 who had received Compound A 100 mg or placebo under fasted conditions (1st Treatment Period) also participated in an evaluation of food effect on the PK of Compound A (2nd Treatment Period). After a washout period of at least 13 days (or 5 half-lives of Compound A, whichever was longer), subjects were admitted to the clinic for baseline assessments (2nd Baseline Period) and then received a single dose of the same treatment (Compound A 100 mg or placebo) after consuming a high fat and high calorie meal over 30 minutes. Blood PK samples were collected at prespecified time points. Safety evaluations were also assessed. CSF was not collected for PD evaluation during the 2nd Treatment Period. A Follow Up Visit occurred on Day 10 of Treatment Period 2.
In Part C, there was 1 cohort of 8 healthy elderly subjects (65 to 85 years of age) randomly assigned to receive a single dose of Compound A 100 mg or placebo in a ratio of 6:2, respectively.
In Part D, 3 cohorts of healthy adult Japanese subjects were randomized in parallel. There were 7 subjects in each cohort and subjects were randomly assigned to receive single doses of Compound A (25, 100, or 400 mg) or placebo in a ratio of 6:1, respectively.
Blood samples for determination of plasma Compound A concentrations were collected from predose to 216 hours postdose. On Day 1, blood PK samples were collected at predose and postdose 0.5 (30 minutes), 1, 1.5, 2, 3, 4, 5, 6, 8, 12, and 18 hours. Thereafter, samples were collected on Day 2 (24 and 36 hours postdose), Day 3 (48 hours postdose), Day 4 (72 hours postdose), Day 5 (96 hours postdose), Day 6 (120 hours postdose), Day 7 (144 hours postdose), and Day 10 (216 hours postdose).
Blood samples for determination of plasma Compound A concentrations were collected from predose to 216 hours postdose. For all cohorts, blood PK samples were collected on Day 1 at predose and postdose at 0.5 (30 minutes), 1, 1.5, 2, 3, 4, 5, 6, 8, 10, 12, and 18 hours. […]

COc1ncc(C)c(-c2ccc3c(c2)[nH]c(=O)c2cnn([C@H]4CCOC4)c23)c1C [Compound A, (S)-7-(2-methoxy-3,5-dimethylpyridin-4-yl)-1-(tetrahydrofuran-3-yl)-1H-pyrazolo[4,3-c]quin olin-4(5H)-one]
Cmax (100 mg, Japanese Subjects (Part D), single oral 100 mg, read-out: Cmax GM (% CV)): 492 ng/mL
Vd/F (100 mg, Japanese Subjects (Part D), single oral 100 mg, read-out: Vz/F GM (% CV)): 240 L
half-life (100 mg, Japanese Subjects (Part D), single oral 100 mg, read-out: t1/2 Mean (SD) (converted)): 23.9 h
Tmax (100 mg, Japanese Subjects (Part D), single oral 100 mg, read-out: tmax Median): 2.52 h
AUC(0-inf) (100 mg, Non-Japanese Subjects (Parts A,B), single oral 100 mg, read-out: AUC(0-inf) GM): 15000 ng·h/mL
Cmax (100 mg, Non-Japanese Subjects (Parts A,B), single oral 100 mg, read-out: Cmax GM (% CV)): 373 ng/mL
Vd/F (100 mg, Non-Japanese Subjects (Parts A,B), single oral 100 mg, read-out: Vz/F GM (% CV)): 268 L
half-life (100 mg, Non-Japanese Subjects (Parts A,B), single oral 100 mg, read-out: t1/2 Mean (SD) (converted)): 28.6 h
Tmax (100 mg, Non-Japanese Subjects (Parts A,B), single oral 100 mg, read-out: tmax Median): 2.99 h
AUC(0-t) (100 mg, Part B 100 mg cohort, single oral 100 mg, Fasted, read-out: AUC (0-24 h) GM (% CV)): 6140 ng·h/mL
AUC(0-t) (100 mg, Part B 100 mg cohort, single oral 100 mg, Fasted, read-out: AUC (0-30 h) GM (% CV)): 7360 ng·h/mL
AUC(0-t) (100 mg, Part B 100 mg cohort, single oral 100 mg, Fasted, read-out: AUC (0-72 h) GM (% CV)): 12200 ng·h/mL
AUC(0-inf) (100 mg, Part B 100 mg cohort, single oral 100 mg, Fasted, read-out: AUC (0-inf) GM (% CV)): 14500 ng·h/mL
AUC(0-t) (100 mg, Part B 100 mg cohort, single oral 100 mg, Fasted, read-out: AUC (0-t) GM (% CV)): 14400 ng·h/mL
Cmax (100 mg, Part B 100 mg cohort, single oral 100 mg, Fasted, read-out: Cmax GM (%CV)): 371 ng/mL
Vd/F (100 mg, Part B 100 mg cohort, single oral 100 mg, Fasted, read-out: Vz/F GM (% CV)): 252 L
half-life (100 mg, Part B 100 mg cohort, single oral 100 mg, Fasted, read-out: t1/2 Mean (SD) (converted)): 25.7 h
Tmax (100 mg, Part B 100 mg cohort, single oral 100 mg, Fasted, read-out: tmax Median (Min, Max)): 2.99 h
AUC(0-t) (100 mg, Part B 100 mg cohort, single oral 100 mg, Fed (high-fat meal), read-out: AUC (0-24 h) GM (% CV)): 7610 ng·h/mL
AUC(0-t) (100 mg, Part B 100 mg cohort, single oral 100 mg, Fed (high-fat meal), read-out: AUC (0-30 h) GM (% CV)): 8980 ng·h/mL
AUC(0-t) (100 mg, Part B 100 mg cohort, single oral 100 mg, Fed (high-fat meal), read-out: AUC (0-72 h) GM (% CV)): 14500 ng·h/mL
AUC(0-inf) (100 mg, Part B 100 mg cohort, single oral 100 mg, Fed (high-fat meal), read-out: AUC (0-inf) GM (% CV)): 17300 ng·h/mL
AUC(0-t) (100 mg, Part B 100 mg cohort, single oral 100 mg, Fed (high-fat meal), read-out: AUC (0-t) GM (% CV)): 17100 ng·h/mL
Cmax (100 mg, Part B 100 mg cohort, single oral 100 mg, Fed (high-fat meal), read-out: Cmax GM (%CV)): 536 ng/mL
Vd/F (100 mg, Part B 100 mg cohort, single oral 100 mg, Fed (high-fat meal), read-out: Vz/F GM (% CV)): 212 L
half-life (100 mg, Part B 100 mg cohort, single oral 100 mg, Fed (high-fat meal), read-out: t1/2 Mean (SD) (converted)): 26 h
Tmax (100 mg, Part B 100 mg cohort, single oral 100 mg, Fed (high-fat meal), read-out: tmax Median (Min, Max)): 3.49 h
AUC(0-t) (100 mg, healthy adults (Parts A,B), single oral 100 mg, fasted, read-out: AUC(0-24 h) GM): 5730 ng·h/mL
AUC(0-t) (100 mg, healthy adults (Parts A,B), single oral 100 mg, fasted, read-out: AUC(0-30 h) GM): 6890 ng·h/mL
AUC(0-t) (100 mg, healthy adults (Parts A,B), single oral 100 mg, fasted, read-out: AUC(0-72 h) GM): 11900 ng·h/mL
AUC(0-inf) (100 mg, healthy adults (Parts A,B), single oral 100 mg, fasted, read-out: AUC(0-inf) GM): 15000 ng·h/mL
AUC(0-t) (100 mg, healthy adults (Parts A,B), single oral 100 mg, fasted, read-out: AUC(0-t) GM): 14800 ng·h/mL
Cmax (100 mg, healthy adults (Parts A,B), single oral 100 mg, fasted, read-out: Cmax GM): 373 ng/mL
Vd/F (100 mg, healthy adults (Parts A,B), single oral 100 mg, fasted, read-out: Vz/F GM): 268 L
half-life (100 mg, healthy adults (Parts A,B), single oral 100 mg, fasted, read-out: t1/2 Mean (converted)): 28.6 h
Tmax (100 mg, healthy adults (Parts A,B), single oral 100 mg, fasted, read-out: tmax Median): 2.99 h
AUC(0-inf) (100 mg, healthy elderly subjects (Part C), single oral 100 mg, read-out: AUC (0-inf) GM (% CV)): 21300 ng·h/mL
Cmax (100 mg, healthy elderly subjects (Part C), single oral 100 mg, read-out: Cmax GM (% CV)): 543 ng/mL
Vd/F (100 mg, healthy elderly subjects (Part C), single oral 100 mg, read-out: Vz/F GM (% CV)): 253 L
half-life (100 mg, healthy elderly subjects (Part C), single oral 100 mg, read-out: t1/2 Mean (SD) (converted)): 38.1 h
Tmax (100 mg, healthy elderly subjects (Part C), single oral 100 mg, read-out: tmax Median (Min, Max)): 2.6 h
AUC(0-t) (200 mg, healthy adults (Parts A,B), single oral 200 mg, fasted, read-out: AUC(0-24 h) GM): 7800 ng·h/mL
AUC(0-t) (200 mg, healthy adults (Parts A,B), single oral 200 mg, fasted, read-out: AUC(0-30 h) GM): 9440 ng·h/mL
AUC(0-t) (200 mg, healthy adults (Parts A,B), single oral 200 mg, fasted, read-out: AUC(0-72 h) GM): 16800 ng·h/mL
AUC(0-inf) (200 mg, healthy adults (Parts A,B), single oral 200 mg, fasted, read-out: AUC(0-inf) GM): 22400 ng·h/mL
AUC(0-t) (200 mg, healthy adults (Parts A,B), single oral 200 mg, fasted, read-out: AUC(0-t) GM): 22000 ng·h/mL
Cmax (200 mg, healthy adults (Parts A,B), single oral 200 mg, fasted, read-out: Cmax GM): 539 ng/mL
Vd/F (200 mg, healthy adults (Parts A,B), single oral 200 mg, fasted, read-out: Vz/F GM): 384 L
half-life (200 mg, healthy adults (Parts A,B), single oral 200 mg, fasted, read-out: t1/2 Mean (converted)): 30.9 h
Tmax (200 mg, healthy adults (Parts A,B), single oral 200 mg, fasted, read-out: tmax Median): 2 h
AUC(0-inf) (400 mg, Japanese Subjects (Part D), single oral 400 mg, read-out: AUC(0-inf) GM): 46500 ng·h/mL
Cmax (400 mg, Japanese Subjects (Part D), single oral 400 mg, read-out: Cmax GM (% CV)): 1180 ng/mL
Vd/F (400 mg, Japanese Subjects (Part D), single oral 400 mg, read-out: Vz/F GM (% CV)): 364 L
half-life (400 mg, Japanese Subjects (Part D), single oral 400 mg, read-out: t1/2 Mean (SD) (converted)): 30 h
Tmax (400 mg, Japanese Subjects (Part D), single oral 400 mg, read-out: tmax Median): 2.25 h
